From PMC9598925, “Synthetic Amphipathic β-Sheet Temporin-Derived Peptide with Dual Antibacterial and Anti-Inflammatory Activities” (Antibiotics, 2022)
Non-standard residues stand in square brackets, D forms with d. Residues, ends and D or L forms follow the SMILES beside them. Nle = CCCC[C@H](N)C(=O)O

Experiments:
[1] = system: IL-6 production in LPS-stimulated J774A.1 cells; assay: Anti-inflammatory activity, IL-6 ELISA in LPS-stimulated macrophages; type: cell-based, murine; conditions: LPS 10 µg∙mL^−1, peptide 3 μM, 24 h, ELISA of supernatant, three independent experiments
Description: Mouse macrophage cell line J774A.1 was cultured as previously described. Cells were seeded in Petri culture dishes (100 mm × 20 mm) at a density of 5 × 10^5 cells per dish and allowed to grow for 24 h. The medium was then replaced, and cells were treated with LPS (10 μg∙mL^−1) in presence or absence of [Nle^1, DLeu^9, DLys^10]TL at the concentration of 3 µM (non-cytotoxic concentration from MTT assay). Following incubation of 24 h, cells were collected with a cell scraper, and after centrifugation at 14,000× g for 10 min at 4 °C, the supernatant was collected and assayed for IL-6 enzyme-linked immunosorbent assay (ELISA) analysis.

[2] = Peptide aggregation in LUVs, Thioflavin T; type: physicochemical; conditions: LUVs DOPG/CL (58/42), 0.1 mM lipid
Description: Regarding peptide aggregation in LUVs, was monitored using the Thioflavin T as fluorescent probe. LUVs were prepared using the extrusion method. Firstly, the lipid films (final concentration of 0.1 mM), made of DOPG, CL (58/42 ratio in moles) and DOPG/DOPE/CL (63/23/12 ratio in moles), were prepared by dissolving an appropriate amount of lipids in chloroform. The solvent was removed under nitrogen stream, water was added, and the film lipids were freeze-dried. Then, the lipid films were hydrated with 100 mM NaCl, 10 mM Tris-HCl, 25 μM Tht buffer, pH 7.4, and vortexed for 1 h. Then, the lipid suspension was freeze-thawed 6 times and extruded 10 times through polycarbonate membranes with […] diameter pores to obtain LUVs. The aggregation of [Nle^1, DLeu^9, DLys^10]TL was monitored titrating LUVs with different peptide concentrations of 5, 10, 15, 20, 30, 50 μM. Spectra were recorded before and after the addition of peptide using a Varian Cary Eclipse fluorescence spectrometer, exciting the sample at 450 nm (slit width, 10 nm) and recording fluorescence emission at 482 nm (slit width, 5 nm). Aggregation was quantified according to this equation: %A= […] × 100, where Ff indicates the value of fluorescence after peptide addition, F0 the fluorescence in the absence of peptide and Fmax is the fluorescence maximum obtained immediately after peptide addition.

in vitro = conditions: male, human, 90% human serum (from human male AB plasma)
Description: The peptide was mixed with 90% of human serum at a final concentration of 200 μM and incubated at 37 °C [27]. Aliquots of the mixture were taken at time intervals of 15, 45, 75, 90 and 120 min. The serum protein was removed by the precipitation with acetonitrile (MeCN) and centrifuged at 13,000 rpm for 15 min. Then, the supernatant was taken and analyzed by ultra-high performance liquid chromatography (UHPLC) using a Phenomenex Kinetex column (4.6 mm × 150 mm, 5 μm, C18) and a linear gradient from 10 to 90% of MeCN (0.1% TFA) in water (0.1% TFA) over 20 min. The percentage of the intact peptide was calculated by integrating the peak area of the UHPLC chromatogram.

sheep red blood cells = assay: Hemolytic assay; type: cell-based
Description: Hemolysis was evaluated on sheep red blood cells (OXOID, SR0051D, Milan, Italy). Aliquots of cells in 0.9% (w/v) NaCl were incubated with the peptide [Nle^1, DLeu^9, DLys^10]TL at different concentrations (ranging from 3.12 to 100 μM) for 40 min at 37 °C with gentle shaking. Controls were erythrocytes treated with vehicle while total lysis controls were obtained by suspending cell in distilled water. Then, the samples were centrifuged for 5 min at 900× g, and the presence of hemoglobin in the supernatant was measured at an absorbance of 415 nm using a microplate reader (Infinite M200; Tecan, Salzburg, Austria) and compared to the complete lysis of erythrocytes (100%). The data reported are the mean ± the standard error of the mean (S.E.M.) of three independent experiments.

[3] = Peptide aggregation in aqueous solution, Nile Red; type: physicochemical; conditions: Nile Red 500 nM, 1–200 μM peptide, 1 h equilibration at room temperature, fluorescence, triplicate, Boltzmann fit
Description: Nile Red (NR) was used as fluorescent probe to monitor the aggregation in solution [51]. NR is not very soluble in water and has a large preference to move into hydrophobic environment as aggregates, producing a blue shift and hyperchromic effect. The peptide stock (400 μM) was prepared in 1,1,1,3,3,3-hexafluoro-2-propanol (HFIP) as solvent and different aliquots were taken to prepare each peptide solution at different concentrations (1, 5, 10, 15, 20, 30, 50, 100, and 200 μM). Then, HFIP was removed under nitrogen stream, 1 mL of water was added, and the solution was sonicated for 15 min and freeze-dried. Finally, the peptide powders were dissolved with a solution of 500 nM of NR in water and equilibrated for 1 h at room temperature. Emission spectra for each solution were measured between 570 and 700 nm by a Cary Eclipse Varian spectrometer (San Diego, CA, USA), setting a slit width of 5 nm and an excitation wavelength of 550 nm and a 10 nm slit width. The measurements were performed in triplicate. The data were analyzed by plotting the maximum emission fluorescence corresponding wavelength (y) as a function of peptide concentration (x) and fitting with the sigmoidal Boltzmann equation as described previously.

## CCCC[C@H](N)C(=O)N[C@@H](Cc1ccccc1)C(=O)N[C@H](C(=O)N1CCC[C@H]1C(=O)N[C@@H](Cc1c[nH]c2ccccc12)C(=O)N[C@@H](Cc1ccccc1)C(=O)N[C@@H](CO)C(=O)N[C@@H](CCCCN)C(=O)N[C@@H](Cc1ccccc1)C(=O)N[C@H](CC(C)C)C(=O)N[C@H](CCCCN)C(=O)N[C@@H](CCCNC(=N)N)C(=O)N[C@H](C(=O)N[C@@H](CC(C)C)C(N)=O)[C@@H](C)CC)C(C)C [[Nle^1, DLeu^9, DLys^10]TL] (H-[Nle]FVPWFSKF[dL][dK]RIL-NH2)
[1]
  IL-6 production: significant modulation of IL-6 production
[2]; 5 μM peptide, pH 7.4, 25 μM ThT fluorescence
  aggregation (ThT): ~ 22%
[2]; 30 μM peptide, pH 7.4, ThT fluorescence
  aggregation (ThT): completely aggregated
In vitro
  remaining at 0.75 h, 200 μM: ~75%
  remaining at 2 h, 200 μM: ~50%
Sheep red blood cells; 50 µM
  hemolysis: ~ 40%
Sheep red blood cells; 100 µM
  hemolysis: ~ 40%
[3]
  critical aggregation concentration (CAC): 38.9 µM
